# Assay results from US11225505B2, “Antimicrobial polymyxin derivative compounds” (MONASH UNIVERSITY, priority 2015, dated 2022).
# Like-named read-outs stand apart in the source and are kept apart here. Where a SMILES comes first, the peptide text is derived from it. Bridges are numbered along the chain shown (N, C = ends). [ ]: non-standard residue; d: D form. The star is where a group is joined. Indazole3carbonyl = O=C(c1n[nH]c2ccccc12)*; Quinaldoyl = O=C(c1ccc2ccccc2n1)*; X23 = O=C(c1cc2ccccc2[nH]1)*; X69 = Cn1c(C(=O)*)nc2ccccc21; Dab = NCC[C@H](N)C(=O)O; Abu = CC[C@H](N)C(=O)O; Dap = NC[C@H](N)C(=O)O
# Experiments:
# Type in all cases: cell-based
# [1] = tested on: Pseudomonas aeruginosa ATCC 27853
# How it was run: (§1)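 The read-out is the MIC, obtained by CLSI broth microdilution (M100-S24) in cation-adjusted Mueller-Hinton broth. The compounds were lipopeptide TFA salts, and polymyxin B sulphate served as control.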
# [2] = tested on: Klebsiella pneumoniae Kp BM1
# How it was run: (§2)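 In cation-adjusted Mueller-Hinton broth, each lipopeptide (TFA salt) was titrated against the bacteria by microdilution and the minimum inhibitory concentration recorded per CLSI M100-S24; polymyxin B sulphate ran in parallel.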
# [3] = tested on: Pseudomonas aeruginosa FADDI-PA038
# How it was run: as §1
# [4] = tested on: Acinetobacter baumannii ATCC 17978
# How it was run: as §1
# [5] = tested on: Acinetobacter baumannii FADDI-AB034
# How it was run: as §1
# [6] = tested on: Enterobacter cloacae FADDI-EC003
# How it was run: as §1
# [7] = tested on: Enterobacter cloacae FADDI-EC006
# How it was run: as §1
# [8] = tested on: Klebsiella pneumoniae FADDI-KP032
# How it was run: as §1
# [9] = tested on: Pseudomonas aeruginosa FADDI-PA022
# How it was run: as §1
# [10] = tested on: Klebsiella pneumoniae FADDI-KP022
# How it was run: as §1
# [11] = tested on: Pseudomonas aeruginosa FADDI-PA01
# How it was run: as §1
# [12] = tested on: Enterobacter cloacae FADDI-EC001
# How it was run: as §2
# [13] = tested on: Acinetobacter baumannii FADDI-AB030; experiment: microbe, parasite or virus in culture
# How it was run: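 Broth microdilution MIC in cation-adjusted Mueller-Hinton broth per CLSI M100-S24; lipopeptides tested as TFA salts. FADDI-AB030 is a multidrug-resistant clinical isolate. Polymyxin B sulphate served as control.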
SMILES,Minimum inhibitory concentration ([1]; ATCC 27853) [mg/L],Minimum inhibitory concentration ([2]; Kp BM1) [mg/L],Minimum inhibitory concentration ([3]; FADDI-PA038) [mg/L],Minimum inhibitory concentration ([4]; ATCC 17978) [mg/L],Minimum inhibitory concentration ([5]; FADDI-AB034) [mg/L],Minimum inhibitory concentration ([6]; FADDI-EC003) [mg/L],Minimum inhibitory concentration ([7]; FADDI-EC006) [mg/L],Minimum inhibitory concentration ([8]; FADDI-KP032) [mg/L],Minimum inhibitory concentration ([9]; FADDI-PA022) [mg/L],Minimum inhibitory concentration ([10]; FADDI-KP022) [mg/L],Minimum inhibitory concentration ([11]; FADDI-) [mg/L],Minimum inhibitory concentration ([12]; FADDI-EC001) [mg/L],Minimum inhibitory concentration ([13]; FADDI-AB030) [mg/L],further results
CC[C@@H]1NC(=O)[C@@H](CC(C)C)NC(=O)[C@H](CCN)NC(=O)[C@@H](NC(=O)[C@H](CN)NC(=O)[C@@H](NC(=O)[C@H](CCN)NC(=O)c2n[nH]c3ccccc23)[C@@H](C)O)CCNC(=O)[C@H]([C@@H](C)O)NC(=O)[C@H](CCN)NC(=O)[C@H](CCN)NC1=O [Compound 54] (Indazole3carbonyl-[Dab]T[Dap][Dab][Dab][dL][Abu][Dab][Dab]T; lactam 4-C),,,,,,,,,,,,,,"Minimum inhibitory concentration ([1]; P. aeruginosa ATCC 27853, CAMHB broth microdilution): 0.5 mg/L; Minimum inhibitory concentration ([2]; K. pneumoniae Kp BM1, CAMHB broth microdilution): <0.125 mg/L; Minimum inhibitory concentration ([3]; P. aeruginosa FADDI-PA038, CAMHB broth microdilution): 0.25 mg/L; Minimum inhibitory concentration ([4]; A. baumannii ATCC 17978, CAMHB broth microdilution): 1 mg/L; Minimum inhibitory concentration ([5]; A. baumannii FADDI-AB034, CAMHB broth microdilution): 0.5 mg/L; Minimum inhibitory concentration ([6]; E. cloacae FADDI-EC003, CAMHB broth microdilution): 0.5 mg/L; Minimum inhibitory concentration ([7]; E. cloacae FADDI-EC006, CAMHB broth microdilution): 0.5 mg/L; Minimum inhibitory concentration ([8]; K. pneumoniae FADDI-KP032, CAMHB broth microdilution): <0.125 mg/L; Minimum inhibitory concentration ([9]; P. aeruginosa FADDI-PA022, CAMHB broth microdilution): 0.5 mg/L; Minimum inhibitory concentration ([10]; K. pneumoniae FADDI-KP022, CAMHB broth microdilution): <0.125 mg/L; Minimum inhibitory concentration ([11]; P. aeruginosa FADDI-PA01, CAMHB broth microdilution): 0.25 mg/L; Minimum inhibitory concentration ([12]; E. cloacae FADDI-EC001, CAMHB broth microdilution): <0.125 mg/L; Minimum inhibitory concentration ([13]; A. baumannii FADDI-AB030, CAMHB broth microdilution): 0.25 mg/L"
CC[C@@H]1NC(=O)[C@@H](CC(C)C)NC(=O)[C@H](CCN)NC(=O)[C@@H](NC(=O)[C@H](CN)NC(=O)[C@@H](NC(=O)[C@H](CCN)NC(=O)c2ccc3ccccc3n2)[C@@H](C)O)CCNC(=O)[C@H]([C@@H](C)O)NC(=O)[C@H](CCN)NC(=O)[C@H](CCN)NC1=O [Compound 55] (Quinaldoyl-[Dab]T[Dap][Dab][Dab][dL][Abu][Dab][Dab]T; lactam 4-C),0.25,0.5,0.25,1,0.25,<0.125,<0.125,<0.125,<0.125,<0.125,0.25,<0.125,0.25,
CC[C@@H]1NC(=O)[C@@H](CC(C)C)NC(=O)[C@H](CCN)NC(=O)[C@@H](NC(=O)[C@H](CN)NC(=O)[C@@H](NC(=O)[C@H](CCN)NC(=O)c2cc3ccccc3[nH]2)[C@@H](C)O)CCNC(=O)[C@H]([C@@H](C)O)NC(=O)[C@H](CCN)NC(=O)[C@H](CCN)NC1=O [Compound 56] (X23-[Dab]T[Dap][Dab][Dab][dL][Abu][Dab][Dab]T; lactam 4-C),0.25,0.25,0.5,0.25,<0.125,0.5,0.5,<0.125,0.25,<0.125,<0.125,<0.125,0.25,
CC[C@@H]1NC(=O)[C@@H](CC(C)C)NC(=O)[C@H](CCN)NC(=O)[C@@H](NC(=O)[C@H](CN)NC(=O)[C@@H](NC(=O)[C@H](CCN)NC(=O)c2nc3ccccc3n2C)[C@@H](C)O)CCNC(=O)[C@H]([C@@H](C)O)NC(=O)[C@H](CCN)NC(=O)[C@H](CCN)NC1=O [Compound 57] (X69-[Dab]T[Dap][Dab][Dab][dL][Abu][Dab][Dab]T; lactam 4-C),0.5,0.25,0.5,0.5,0.5,0.25,1,<0.125,0.5,<0.125,0.25,<0.125,0.25,
